Source: paper PMC7489537, “Ser-653-Asn substitution in the acetohydroxyacid synthase gene confers resistance in weedy rice to imidazolinone herbicides in Malaysia” (PLoS ONE, 2020)
Positions count from the first letter of the chain named.

Key:
[1] = biological target: T1, AHAS (acetohydroxyacid synthase), weedy rice (Oryza sativa, UniProt Q6K2E8, S627N/V643M); assay: AHAS inhibition assay, colorimetric acetoin at […] nm; assay type: biochemical; conditions: susceptible (S) population; partially purified leaf extract; 60 min incubation; read-out: I50
T1 construct: gene ALS1; native enzyme, partially purified leaf extract; Pro93 and Met669 (Arabidopsis numbering); resistant weedy rice allele (S653N) deposited as GenBank MN268688
T1 sequence (Q6K2E8 44-644 S627N/V643M): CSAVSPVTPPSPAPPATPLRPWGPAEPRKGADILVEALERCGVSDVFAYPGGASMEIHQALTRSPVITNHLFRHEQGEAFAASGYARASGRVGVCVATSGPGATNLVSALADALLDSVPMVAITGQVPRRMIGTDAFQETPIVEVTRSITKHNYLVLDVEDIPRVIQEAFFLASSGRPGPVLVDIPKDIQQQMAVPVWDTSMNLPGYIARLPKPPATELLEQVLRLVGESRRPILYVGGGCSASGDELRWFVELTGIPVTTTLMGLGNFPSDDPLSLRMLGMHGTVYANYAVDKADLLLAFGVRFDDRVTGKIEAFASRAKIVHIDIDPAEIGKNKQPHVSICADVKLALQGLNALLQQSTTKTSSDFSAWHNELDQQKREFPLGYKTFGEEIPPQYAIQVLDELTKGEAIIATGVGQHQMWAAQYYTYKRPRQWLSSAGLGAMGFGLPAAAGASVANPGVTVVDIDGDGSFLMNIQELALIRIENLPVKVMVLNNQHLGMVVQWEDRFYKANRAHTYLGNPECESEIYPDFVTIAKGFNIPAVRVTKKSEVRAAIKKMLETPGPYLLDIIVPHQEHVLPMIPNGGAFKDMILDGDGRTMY

[2] = biological target: T2, AHAS (acetohydroxyacid synthase), MR219 (Oryza sativa, UniProt Q6K2E8, P67T); assay: as above; assay type: biochemical; conditions: cultivar MR219; partially purified leaf extract; 60 min incubation; read-out: I50
T2 construct: gene ALS1; native enzyme, partially purified leaf extract; natural Thr93, Ser653, Val669 (Arabidopsis numbering)
T2 sequence (Q6K2E8 44-644 P67T): T1 sequence (Q6K2E8 44-644 S627N/V643M) with P24T, N584S, M600V

Row | Structure (SMILES) | IC50 [1] [nM] | IC50 [2] [nM]
1 | Cc1cnc(C2=NC(=O)C(C)(C(C)C)N2)c(C(=O)O)c1 (stereo not shown) [imazapic] | 1.2 | 1.7
2 | CC(C)C1(C)N=C(c2ncccc2C(=O)O)NC1=O (stereo not shown) [imazapyr] | 2.5 | 1.7
